Source: ChEMBL document CHEMBL1124506, “Synthesis and antimicrobial properties of substituted beta-aminoxypropionyl penicillins and cephalosporins” (1989)
≈ marks a conversion by molar mass, not a printed value.

How the values were obtained:
Assay type in all cases: functional
[1] = Inhibition of gram negative (resistant) growth.
[2] = Inhibition of gram positive bacteria growth.
[3] = Inhibition of gram negative bacteria growth.
Staphylococcus aureus = assay: Inhibition of gram positive (resistant) bacteria growth.

Row | SMILES | MIC [1] [µg/mL] | MIC [2] [µg/mL] | MIC [3] [µg/mL] | MIC (Staphylococcus aureus) [µg/mL]
1 | CC1(C)SC2C(NC(=O)CCON=C3CCCC3)C(=O)N2[C@H]1C(=O)[O-].[K+] (some centres undefined) | > 200 | 0.06 | 53 | 25
2 | CC(=O)OCC1=C(C(=O)[O-])N2C(=O)C(NC(=O)CCO/N=C(\C)c3ccc(Cl)cc3)C2SC1.[K+] (centres undefined) | > 200 | 0.25 | 151 | 4
3 | CCCC(CCC)=NOCCC(=O)NC1C(=O)N2C(C(=O)O)=C(C)CSC12 (centres undefined) | > 200 | 16.4 (≈ 41.3 µM) | > 200 | 100 (≈ 252 µM)
4 | CC1(C)SC2C(NC(=O)CCON=C3CCCCC3)C(=O)N2[C@H]1C(=O)[O-].[K+] (some centres undefined) | > 200 | 0.2 | 107 | 25
5 | CC(=O)OCC1=C(C(=O)O)N2C(=O)C(NC(=O)CCON=C3c4ccccc4-c4ccccc43)C2SC1 (centres undefined) | > 100 | 0.02 (≈ 0.0383 µM) | 44 (≈ 84.4 µM) | 0.25 (≈ 0.479 µM)
6 | CC(=O)OCC1=C(C(=O)O)N2C(=O)C(NC(=O)CCON=C(C)C)C2SC1 (centres undefined) | > 200 | 1.7 (≈ 4.26 µM) | 174 (≈ 436 µM) | 6.2 (≈ 15.5 µM)
7 | CC(=O)OCC1=C(C(=O)O)N2C(=O)C(NC(=O)Cc3ccccc3)C2SC1 (centres undefined) | > 200 | 1.06 (≈ 2.72 µM) | 29 (≈ 74.3 µM) | 12.6 (≈ 32.3 µM)
8 | CC(=O)OCC1=C(C(=O)O)N2C(=O)C(NC(=O)CCON=C3CCCCC3)C2SC1 (centres undefined) | > 200 | 0.5 (≈ 1.14 µM) | 174 (≈ 396 µM) | 1.9 (≈ 4.32 µM)
9 | CC(=O)OCC1=C(C(=O)O)N2C(=O)C(NC(=O)CCO/N=C\c3ccccc3)C2SC1 (centres undefined) | > 200 | 0.22 (≈ 0.492 µM) | 71 (≈ 159 µM) | 4 (≈ 8.94 µM)
10 | CC1=C(C(=O)O)N2C(=O)C(NC(=O)Cc3ccccc3)C2SC1 (centres undefined) | > 200 | 6.2 (≈ 18.7 µM) | 123 (≈ 370 µM) | 200 (≈ 602 µM)
11 | CC1=C(C(=O)O)N2C(=O)C(NC(=O)CCO/N=C(\C)c3ccc(Cl)cc3)C2SC1 (centres undefined) | > 200 | 4.7 (≈ 10.7 µM) | > 200 | 63 (≈ 144 µM)
12 | CC1(C)SC2C(NC(=O)CCO/N=C/c3ccccc3)C(=O)N2[C@H]1C(=O)[O-].[K+] (some centres undefined) | > 200 | 0.1 | 136 | 50
13 | CC1=C(C(=O)O)N2C(=O)C(NC(=O)CCON=C3CCCCC3)C2SC1 (centres undefined) | > 200 | 7.3 (≈ 19.1 µM) | 131 (≈ 343 µM) | 79 (≈ 207 µM)
14 | CC1=C(C(=O)O)N2C(=O)C(NC(=O)CCO/N=C\c3ccccc3)C2SC1 (centres undefined) | > 200 | 8.2 (≈ 21.1 µM) | > 200 | 79 (≈ 203 µM)
15 | CC1=C(C(=O)O)N2C(=O)C(NC(=O)CCON=C3CCCC3)C2SC1 (centres undefined) | > 200 | 9.1 (≈ 24.8 µM) | 131 (≈ 357 µM) | 79 (≈ 215 µM)
16 | CCCC(CCC)=NOCCC(=O)NC1C(=O)N2C(C(=O)O)=C(COC(C)=O)CSC12 (centres undefined) | > 200 | 0.73 (≈ 1.6 µM) | 93 (≈ 204 µM) | 10 (≈ 22 µM)
17 | CC1(C)SC2C(NC(=O)CCON=C3c4ccccc4-c4ccccc43)C(=O)N2[C@H]1C(=O)[O-].[K+] (some centres undefined) | > 200 | 0.06 | 131 | 8
18 | CC1(C)S[C@@H]2[C@H](NC(=O)[C@H](N)c3ccccc3)C(=O)N2[C@H]1C(=O)O [AMPICILLIN] | > 200 | 0.04 (≈ 0.114 µM) | 1 (≈ 2.86 µM) | 10 (≈ 28.6 µM)
19 | CC1=C(C(=O)O)N2C(=O)[C@@H](NC(=O)[C@H](N)c3ccccc3)[C@H]2SC1 [CEPHALEXIN ANHYDROUS] | > 100 | 0.4 (≈ 1.15 µM) | 2 (≈ 5.76 µM) | 20 (≈ 57.6 µM)
20 | CC1(C)S[C@@H]2[C@H](NC(=O)Cc3ccccc3)C(=O)N2[C@H]1C(=O)O [PENICILLIN G] | > 200 | 0.05 (≈ 0.15 µM) | 71 (≈ 212 µM) | 79 (≈ 236 µM)
21 | [3H]C([3H])([3H])N1C(=O)CN=C(c2ccc(Cl)cc2)c2cc(Cl)ccc21 [[3H]-RO-54864] | > 200 | 0.59 (≈ 1.81 µM) | 71 (≈ 218 µM) | 7.3 (≈ 22.4 µM)
